“Also recorded” adds a separate entry of the source.
Legend:
neuronal cultures = conditions: Loreto et al., 2021, Wu et al.; cited from earlier work
[1] = test system: expanded mouse Schwann cells; assay: Cell death in expanded mouse Schwann cells passaged three times (phase contrast, propidium iodide); assay type: cell-based; conditions: 250 μM 3-AP for 72 hours vs water; Schwann cells passaged three times in proliferative medium
Description: Mouse SCs were passaged on PLL/laminin coated dishes in the presence of low serum (0.5% horse serum), 10 ng/ml Bneuregulin1 (BNRG1), and a low concentration cyclic adenosine monophosphate (CAMP) elevating signal, such as 2 μM forskolin or 100 μM dibutryl cAMP (Arthur-Farraj et al., 2011). Full protocol is described in (Mutschler et al., 2023).

Schwann cells = assay: Intracellular NAD+ in Schwann cells (NAD-glo assay); assay type: cell-based, mouse; conditions: 250 μM 3AP, 72 hours, compared to DMSO control, listed as 3AP
Description: (§1) Freshly plated mouse Schwann cells were obtained from P2 sciatic and brachial nerves. Nerves were digested with trypsin and collagenase, centrifuged and plated on laminin/Poly-L-lysine coated glass coverslips in defined medium as previously described (Arthur-Farraj et al., 2011).
[…] Protein was extracted using Pierce™ IP Lysis Buffer supplemented with cOmplete™ Mini EDTA-free Protease Inhibitor Cocktail, and a BCA assay carried out to determine protein concentration. All samples were diluted to 0.5 μg/μL. The NAD-glo assay was performed according to manufacturer's instruction of the NAD^+/NADH-Glo™ assay by Promega (G9071). In short, 25 μL of sample were incubated with 12.5 μL 0.4M HCl at 60° C. for 15 min, before 12.5 μL 0.5M Tris base were added. 10 μL NAD^+ standards or sample were then mixed with 10 μL NAD-glo master mix (1 ml luciferin detection reagent, 5 μl reductase, 5 μl reductase substrate, 5 μl NAD^+ cycling enzyme, 25 μl NAD^+ cycling substrate) and incubated at RT for 40 min. Luminescence was read using a GloMax® Explorer microplate reader and NAD^+ concentrations determined relative to a NAD^+ standard curve.

SARM1 [2] = target: T1, SARM1 (Homo sapiens, UniProt Q6SZW1); conditions: cited from earlier work; for SARM1 activation in in vitro assays: Zhao et al., 2019; for SARM1 activation on binding in the allosteric site (ARM domain): Figley et al.
T1 sequence (Q6SZW1 28-724): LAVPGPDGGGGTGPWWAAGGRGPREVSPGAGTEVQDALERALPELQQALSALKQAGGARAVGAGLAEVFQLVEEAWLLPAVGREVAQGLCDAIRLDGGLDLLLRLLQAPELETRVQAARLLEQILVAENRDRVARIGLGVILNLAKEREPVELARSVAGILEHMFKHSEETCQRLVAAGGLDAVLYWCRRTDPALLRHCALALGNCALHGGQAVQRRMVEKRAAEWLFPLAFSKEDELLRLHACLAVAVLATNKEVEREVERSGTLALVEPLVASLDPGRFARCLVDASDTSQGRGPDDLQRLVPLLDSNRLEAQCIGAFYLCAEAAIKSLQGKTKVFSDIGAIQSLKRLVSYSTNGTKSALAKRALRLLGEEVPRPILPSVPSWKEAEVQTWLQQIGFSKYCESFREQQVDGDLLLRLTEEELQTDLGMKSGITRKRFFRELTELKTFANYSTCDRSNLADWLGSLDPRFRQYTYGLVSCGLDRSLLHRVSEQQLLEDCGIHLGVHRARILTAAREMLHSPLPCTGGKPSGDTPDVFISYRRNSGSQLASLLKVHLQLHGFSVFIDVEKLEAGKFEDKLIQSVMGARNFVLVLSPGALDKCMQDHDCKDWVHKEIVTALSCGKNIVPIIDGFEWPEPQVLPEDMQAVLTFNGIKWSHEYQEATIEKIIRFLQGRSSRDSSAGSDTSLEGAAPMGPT

[3] = test system: freshly plated P2 mouse Schwann cells; assay: Cell death in freshly plated P2 mouse Schwann cells (propidium iodide, DAPI, SOX10); assay type: cell-based; conditions: 250 μM 3-AP for 72 hours vs water
Description: as §1
Sciatic and optic nerves were dissected from Wt and Sarm1 KO mice and directly embedded in O.C.T. compound, without fixing, and stored at −80° C. until ready for cryosectioning. Cryosections at 5 μm thick were collected onto SuperFrost plus slides. These slides were post-fixed in 4% paraformaldehyde (PFA) at room temperature for 10 mins followed by three washes of 5 mins each with 1×PBS. The slides were then immersed in 100% methanol at −20° C. for 10 mins, followed by three washes of 5 mins each with 1×PBS. The slides were then blocked in 5% horse serum (HS)/0.2% Triton x-100/PBS for 30 mins at room temperature. Primary antibodies were diluted in blocking solution and slides were incubated overnight at 4° C. The following day, the slides were washed once for 5 mins with 1×PBS, twice for 5 mins with 0.1% tween/PBS and finally once again for 5 mins with 1×PBS before adding secondary antibodies. The corresponding secondary antibodies were diluted at 1:500 along with DAPI at 1:2000 for 2 hrs at room temperature and kept in the dark. […]

SARM1 [4] = target: T1, SARM1; conditions: Zhao et al., 2019; cited from earlier work

For `CC(=O)c1cccnc1` [3-AP, 3-acetylpyridine], which “effect of high dose on neuronal cultures” value (neuronal cultures) is on record?
Its value is “axonal degeneration and cell death within hours”.

And the “cell death by propidium iodide (P.I.) staining and phase contrast” value [1]?
The value was “susceptible to cellular dysfunction and death; also recorded: substantial increase in P.I. staining”.

And the “Intracellular NAD+ levels” value (Schwann cells)?
Its value is “do not change”.

And the “SARM1 activity on interaction with active site (TIR domain) for base exchange reaction” value (SARM1 [2]; Loreto et al., 2021, Angeletti et al., 2022, Wu et al.)?
Its value is “increase in SARM1 activity”.

What about the “cell death judged by propidium iodide (P.I) and DAPI nuclear staining and SOX10 immunocytochemistry” value [3] of the same molecule?
Its value is “completely insensitive; also recorded: no cell death”.

With `NC(=O)c1ccc[n+]([C@@H]2O[C@H](COP(=O)(O)O)C(O)C2F)c1` (some centres unmarked) [CZ-17, ara-F-NMN] as the molecule, how does the “SARM1 activation in in vitro assays” value (SARM1 [2]) read?
Its value is “can activate SARM1”.

For `NC(=O)c1ccc[n+]([C@@H]2O[C@H](COP(=O)(O)O)C(O)C2O)c1` (some centres unmarked) [NMN, Nicotinamide Mononucleotide], which “SARM1 activation on binding in the allosteric site (ARM domain)” value (SARM1 [2]; Loreto et al., 2021) is on record?
Its value is “potently activates it”.

For `NC(=O)c1ccc[n+]([C@@H]2O[C@H](COP(O)(O)=S)C(O)C2O)c1` (some centres unmarked) [S-NMN], which “SARM1 activation in in vitro assays” value (SARM1 [2]) is on record?
Its value is “can activate SARM1”.

Which “SARM1 activation on binding in the allosteric site (ARM domain)” value (SARM1 [2]; Loreto et al., 2021) does the source give for `O=C(NCc1ccc[n+](C2OC(COP(=O)([O-])O)C(O)C2O)c1)Nc1ccc([N+](=O)[O-])cc1` (centres unmarked) [VMN, Vacor Mononucleotide] here?
The value was “potently activates SARM1”.

Which “SARM1 activation in cells” value (SARM1 [4]) does the source give for sulfo-ara-F-NMN [CZ-48] here?
Its value is “can activate SARM1”.

And the “SARM1 activation in in vitro assays” value (SARM1 [2])?
Its value is “can activate SARM1”.

Reference: patent US20260166017A1, “SARM1 INHIBITORS FOR USE IN THERAPY AND COSMETICS” (priority 2022, published 2026)
